Results on three molecules are retold here after PubChem BioAssay AID180 (DTP/NCI, 2004).

The structures appear in SMILES notation.

The test concerns BDF1 mice, Adenocarcinoma 755 s.c., tumor weight T/C. The test can be described thus: NCI In Vivo Anticancer Drug Screen. Data for tumor model Adenocarcinoma 755 (subcutaneous) in B6D2F1 (BDF1) mice. To be noted: endpoint: mean tumor weight, higher = larger tumour. Summed up: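 Tumor-bearing mice receive test compound while controls get vehicle alone. Antitumor effect is scored from survival or tumor dimensions as a T/C quotient.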

By T/C is commonly meant the result in the treated group divided by that in the control group, in per cent. `C[C@H]1C(=O)O[C@@H]2CCN3CC=C(COC(=O)[C@](C)(O)[C@@]1(C)O)[C@H]23`: the T/C reads like this: (dose: 12.5 mg/kg/injection, schedule: Q#A X022 (ip), vehicle: carboxymethylcellulose (CMC)) 70 % of control; (dose: 12.5 mg/kg/injection, schedule: Q#A X022 (oral), vehicle: carboxymethylcellulose (CMC)) 65 % of control; (dose: 22.5 mg/kg/injection, schedule: Q01DX011 (ip), vehicle: carboxymethylcellulose (CMC)) 45 % of control; (dose: 25.0 mg/kg/injection, schedule: Q01DX011 (ip), vehicle: carboxymethylcellulose (CMC)) 74 % of control; (dose: 25.0 mg/kg/injection, schedule: Q#A X022 (ip), vehicle: carboxymethylcellulose (CMC)) 69 % of control; (dose: 25.0 mg/kg/injection, schedule: Q#A X022 (oral), vehicle: carboxymethylcellulose (CMC)) 44 % of control. In addition, the T/C is, setting by setting: (dose: 45.0 mg/kg/injection, schedule: Q01DX011 (ip), vehicle: carboxymethylcellulose (CMC)) 34 % of control; (dose: 50.0 mg/kg/injection, schedule: Q01DX011 (ip), vehicle: carboxymethylcellulose (CMC)) 61 % of control; (dose: 50.0 mg/kg/injection, schedule: Q01DX011 (oral), vehicle: saline) 36 % of control; (dose: 50.0 mg/kg/injection, schedule: Q#A X022 (ip), vehicle: carboxymethylcellulose (CMC)) 22 % of control; (dose: 50.0 mg/kg/injection, schedule: Q#A X022 (oral), vehicle: carboxymethylcellulose (CMC)) 7 % of control; (dose: 75.0 mg/kg/injection, schedule: Q03DX004 (ip), vehicle: carboxymethylcellulose (CMC)) 101 % of control. For the same molecule, the T/C reads like this: (dose: 90.0 mg/kg/injection, schedule: Q01DX011 (ip), vehicle: carboxymethylcellulose (CMC)) 15 % of control; (dose: 100.0 mg/kg/injection, schedule: Q01DX011 (ip), vehicle: carboxymethylcellulose (CMC)) 42 % of control; (dose: 100.0 mg/kg/injection, schedule: Q01DX011 (oral), vehicle: carboxymethylcellulose (CMC)) 38 % of control; (dose: 100.0 mg/kg/injection, schedule: Q01DX011 (oral), vehicle: saline) 27 % of control; (dose: 100.0 mg/kg/injection, schedule: Q#A X022 (ip), vehicle: carboxymethylcellulose (CMC)) 15 % of control; (dose: 100.0 mg/kg/injection, schedule: Q#A X022 (oral), vehicle: carboxymethylcellulose (CMC)) 7 % of control. In addition, the T/C (dose: 150.0 mg/kg/injection, schedule: Q03DX004 (ip), vehicle: carboxymethylcellulose (CMC)) was 46 % of control; the T/C (dose: 180.0 mg/kg/injection, schedule: Q01DX011 (ip), vehicle: carboxymethylcellulose (CMC)) is 7 % of control; the T/C (dose: 180.0 mg/kg/injection, schedule: Q01DX011 (ip), vehicle: methylcellulose (MC)) is 24 % of control; the T/C (dose: 200.0 mg/kg/injection, schedule: Q01DX011 (ip), vehicle: carboxymethylcellulose (CMC)) is 13 % of control; the T/C (dose: 200.0 mg/kg/injection, schedule: Q01DX011 (oral), vehicle: carboxymethylcellulose (CMC)) was 14 % of control; the T/C (dose: 200.0 mg/kg/injection, schedule: Q01DX011 (oral), vehicle: saline) is 4 % of control. The T/C is, setting by setting: (dose: 300.0 mg/kg/injection, schedule: Q03DX004 (ip), vehicle: carboxymethylcellulose (CMC)) 24 % of control; (dose: 400.0 mg/kg/injection, schedule: Q01DX011 (oral), vehicle: carboxymethylcellulose (CMC)) 6 % of control; (dose: 400.0 mg/kg/injection, schedule: Q01DX011 (oral), vehicle: saline) 5 % of control; (dose: 600.0 mg/kg/injection, schedule: Q03DX004 (ip), vehicle: carboxymethylcellulose (CMC)) 16 % of control.
Regarding `NC(N)=Nc1nc2ccccc2o1`, the T/C by setting is: (dose: 55.0 mg/kg/injection, schedule: Q01DX011 (ip), vehicle: methylcellulose (MC)) 109 % of control; (dose: 110.0 mg/kg/injection, schedule: Q01DX011 (ip), vehicle: methylcellulose (MC)) 99 % of control; (dose: 220.0 mg/kg/injection, schedule: Q01DX011 (ip), vehicle: methylcellulose (MC)) 94 % of control; (dose: 330.0 mg/kg/injection, schedule: Q01DX011 (ip), vehicle: methylcellulose (MC)) 66 % of control; (dose: 440.0 mg/kg/injection, schedule: Q01DX011 (ip), vehicle: methylcellulose (MC)) 78 % of control.
For the molecule `CC1CN1P(=S)(N1CCCC1)N1CC1C` (centres undefined), the T/C is 82 % of control (dose: 14.0 mg/kg/injection, schedule: Q01DX011 (ip), vehicle: carboxymethylcellulose (CMC)); 63 % of control (dose: 14.0 mg/kg/injection, schedule: Q01DX011 (ip), vehicle: saline); 58 % of control (dose: 28.0 mg/kg/injection, schedule: Q01DX011 (ip), vehicle: carboxymethylcellulose (CMC)); 43 % of control (dose: 28.0 mg/kg/injection, schedule: Q01DX011 (ip), vehicle: saline); 15 % of control (dose: 57.0 mg/kg/injection, schedule: Q01DX011 (ip), vehicle: carboxymethylcellulose (CMC)); 21 % of control (dose: 57.0 mg/kg/injection, schedule: Q01DX011 (ip), vehicle: saline).
